The source of these data is ChEMBL document CHEMBL5291721, “A preclinical secondary pharmacology resource illuminates target-adverse drug reaction associations of marketed drugs” (Nat Commun, 2023).

Each structure is given as a SMILES string. A value given as a limit tells only on which side of the number the result lay.

The target in one assay is Histamine H1 receptor (Homo sapiens, UniProt P35367).
Assay [1] concerns the target Kappa-type opioid receptor (Homo sapiens, UniProt P41145).
Assay [2] deals with T1, Amine oxidase [flavin-containing] A (Homo sapiens, UniProt P21397).
T1 sequence (P21397 whole entry): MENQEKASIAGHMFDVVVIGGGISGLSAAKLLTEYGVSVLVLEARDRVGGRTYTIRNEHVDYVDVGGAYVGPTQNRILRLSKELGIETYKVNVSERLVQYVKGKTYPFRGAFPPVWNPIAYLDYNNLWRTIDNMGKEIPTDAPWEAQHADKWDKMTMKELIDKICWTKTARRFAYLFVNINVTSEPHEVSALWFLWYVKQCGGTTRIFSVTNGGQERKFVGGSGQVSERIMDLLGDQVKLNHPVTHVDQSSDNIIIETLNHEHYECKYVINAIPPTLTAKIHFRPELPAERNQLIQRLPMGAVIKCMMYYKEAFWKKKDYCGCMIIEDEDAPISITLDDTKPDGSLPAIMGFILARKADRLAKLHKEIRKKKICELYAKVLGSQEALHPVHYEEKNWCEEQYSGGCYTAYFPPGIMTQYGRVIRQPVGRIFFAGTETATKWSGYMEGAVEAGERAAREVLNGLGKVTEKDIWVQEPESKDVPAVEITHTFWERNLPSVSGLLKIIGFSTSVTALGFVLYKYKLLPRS
It counts as functional.

Assay [3] deals with T2, 5-hydroxytryptamine receptor 2C (Homo sapiens, UniProt P28335).
T2 sequence (P28335 whole entry): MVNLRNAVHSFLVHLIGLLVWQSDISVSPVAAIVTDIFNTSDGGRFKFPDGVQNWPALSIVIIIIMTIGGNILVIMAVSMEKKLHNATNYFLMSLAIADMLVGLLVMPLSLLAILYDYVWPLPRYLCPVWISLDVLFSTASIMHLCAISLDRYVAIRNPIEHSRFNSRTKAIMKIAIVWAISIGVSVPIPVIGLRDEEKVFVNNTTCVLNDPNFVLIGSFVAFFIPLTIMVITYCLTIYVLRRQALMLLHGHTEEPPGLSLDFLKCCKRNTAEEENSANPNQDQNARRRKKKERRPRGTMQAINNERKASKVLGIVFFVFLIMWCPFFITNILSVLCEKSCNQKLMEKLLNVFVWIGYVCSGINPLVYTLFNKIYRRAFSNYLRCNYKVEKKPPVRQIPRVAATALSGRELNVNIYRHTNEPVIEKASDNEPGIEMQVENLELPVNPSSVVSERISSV

Assay [4] concerns the target T3, Cholecystokinin receptor type A (Homo sapiens, UniProt P32238).
T3 sequence (P32238 whole entry): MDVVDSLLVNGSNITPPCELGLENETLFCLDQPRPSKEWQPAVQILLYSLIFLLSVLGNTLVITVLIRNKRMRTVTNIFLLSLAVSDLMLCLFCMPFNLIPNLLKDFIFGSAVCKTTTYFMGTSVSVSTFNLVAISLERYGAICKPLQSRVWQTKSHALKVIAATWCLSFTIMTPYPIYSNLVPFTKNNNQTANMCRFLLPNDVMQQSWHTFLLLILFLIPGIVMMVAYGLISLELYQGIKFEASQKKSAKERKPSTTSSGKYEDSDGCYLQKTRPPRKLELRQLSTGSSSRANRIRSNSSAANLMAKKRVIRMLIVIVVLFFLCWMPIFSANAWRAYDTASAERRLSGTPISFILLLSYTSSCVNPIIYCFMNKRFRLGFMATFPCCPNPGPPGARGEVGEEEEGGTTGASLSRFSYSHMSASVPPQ
Also: assay procedure not described here.

Chain of Kappa-type opioid receptor (P41145 whole entry): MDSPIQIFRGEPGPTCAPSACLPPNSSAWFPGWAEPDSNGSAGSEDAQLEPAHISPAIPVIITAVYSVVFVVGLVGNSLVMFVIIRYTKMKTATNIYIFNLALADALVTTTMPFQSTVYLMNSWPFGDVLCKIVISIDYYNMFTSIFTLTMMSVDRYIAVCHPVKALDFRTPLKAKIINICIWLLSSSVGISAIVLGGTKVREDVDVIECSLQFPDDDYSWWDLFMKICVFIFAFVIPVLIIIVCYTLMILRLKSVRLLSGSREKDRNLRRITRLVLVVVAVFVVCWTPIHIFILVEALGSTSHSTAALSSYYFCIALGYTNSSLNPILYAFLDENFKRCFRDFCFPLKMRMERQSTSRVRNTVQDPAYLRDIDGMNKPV
Chain of Histamine H1 receptor (P35367 whole entry): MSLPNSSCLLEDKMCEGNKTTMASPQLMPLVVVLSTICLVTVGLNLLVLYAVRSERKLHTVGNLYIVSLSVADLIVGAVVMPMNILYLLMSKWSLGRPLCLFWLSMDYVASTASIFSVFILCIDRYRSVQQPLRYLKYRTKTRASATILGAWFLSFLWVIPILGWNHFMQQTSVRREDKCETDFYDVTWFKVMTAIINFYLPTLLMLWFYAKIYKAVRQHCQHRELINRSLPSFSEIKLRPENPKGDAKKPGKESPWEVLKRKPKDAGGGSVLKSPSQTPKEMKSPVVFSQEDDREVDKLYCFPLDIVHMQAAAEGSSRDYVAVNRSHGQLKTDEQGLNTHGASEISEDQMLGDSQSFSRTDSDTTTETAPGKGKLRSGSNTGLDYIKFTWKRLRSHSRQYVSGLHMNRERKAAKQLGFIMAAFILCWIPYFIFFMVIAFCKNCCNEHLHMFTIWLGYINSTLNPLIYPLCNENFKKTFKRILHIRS

In general, AC50 refers to the concentration giving half of the maximal activity seen. Regarding `COc1ccccc1Oc1c(NS(=O)(=O)c2ccc(C(C)(C)C)cc2)nc(-c2ncccn2)nc1OCCO` [BOSENTAN], the AC50 on Histamine H1 receptor is greater than 10 µM; in assay [1], greater than 10 µM; in assay [2], greater than 10 µM; in assay [3], greater than 30 µM; in assay [4], greater than 30 µM.
For `COc1ccccc1OCCNCC(O)COc1cccc2[nH]c3ccccc3c12` (stereo not given) [CARVEDILOL], the AC50 in assay [1] was 18.9 µM; in assay [2], greater than 10 µM; in assay [3], 1.1 µM; in assay [4], greater than 30 µM.
On to `O=C1CCc2cc(OCCCCc3nnnn3C3CCCCC3)ccc2N1` [CILOSTAZOL], for which the half-maximal activity concentration (AC50) is 3.06 µM in assay [1], greater than 30 µM in assay [2], greater than 30 µM in assay [3] and greater than 30 µM in assay [4].
On to `C[C@@H](Oc1cc(-c2cnn(C3CCNCC3)c2)cnc1N)c1c(Cl)ccc(F)c1Cl` [CRIZOTINIB], for which the AC50 was greater than 30 µM on Histamine H1 receptor, 30 µM in assay [2], greater than 30 µM in assay [3] and greater than 30 µM in assay [4].
On to `CN(C)CC[C@@H](c1ccc(Cl)cc1)c1ccccn1` [DEXCHLORPHENIRAMINE], for which the AC50 in assay [1] was 12 µM; in assay [2], greater than 30 µM; in assay [3], 28 µM; in assay [4] it was greater than 30 µM.
`C[C@H]1c2cccc(O)c2C(=O)C2=C(O)[C@]3(O)C(=O)C(C(N)=O)=C(O)[C@@H](N(C)C)[C@@H]3[C@@H](O)[C@@H]21` [DOXYCYCLINE]: the AC50 in assay [1] was greater than 10 µM; in assay [2] it was greater than 10 µM; in assay [3] it was greater than 30 µM; in assay [4], greater than 30 µM.
In the case of `CN1C[C@H](C(=O)N[C@]2(C)O[C@@]3(O)[C@@H]4CCCN4C(=O)[C@H](Cc4ccccc4)N3C2=O)C=C2c3cccc4[nH]cc(c34)C[C@H]21` [ERGOTAMINE], the AC50 is greater than 30 µM in assay [2], 3.8 µM in assay [3] and greater than 30 µM in assay [4].
In the case of `CN(C)CCC[C@@]1(c2ccc(F)cc2)OCc2cc(C#N)ccc21` [ESCITALOPRAM], the AC50 in assay [1], in assay [2] and in assay [4] was greater than 30 µM throughout.
In the case of `CO[C@H]1/C=C/O[C@@]2(C)Oc3c(C)c(O)c4c(O)c(c(/C=N/N5CCN(C)CC5)c(O)c4c3C2=O)NC(=O)/C(C)=C\C=C\[C@H](C)[C@H](O)[C@@H](C)[C@@H](O)[C@@H](C)[C@H](OC(C)=O)[C@@H]1C` [RIFAMPIN], the AC50 was greater than 30 µM in assay [1], greater than 30 µM in assay [2] and 17.1 µM in assay [4].
Turning to `CC(N)C12CC3CC(CC(C3)C1)C2` (stereo not given) [RIMANTADINE], the AC50 is greater than 10 µM in assay [1], greater than 10 µM in assay [2], greater than 30 µM in assay [3] and greater than 10 µM in assay [4].
Turning to `Nc1ccc(S(=O)(=O)Nc2nccs2)cc1` [SULFATHIAZOLE], the half-maximal activity concentration (AC50) is greater than 10 µM in assay [1], greater than 10 µM in assay [2], greater than 30 µM in assay [3] and greater than 30 µM in assay [4].
Turning to `O=C1C(CC[S+]([O-])c2ccccc2)C(=O)N(c2ccccc2)N1c1ccccc1` (stereo not given) [SULFINPYRAZONE], the AC50 was greater than 10 µM in assay [1], greater than 10 µM in assay [2], greater than 30 µM in assay [3] and greater than 10 µM in assay [4].
Turning to `CCN(CC)CCNC(=O)c1c(C)[nH]c(/C=C2\C(=O)Nc3ccc(F)cc32)c1C` [SUNITINIB], the AC50 in assay [1] is 10.3 µM; in assay [2], greater than 30 µM; in assay [3] it was 2.25 µM; in assay [4], 6.7 µM.
Taken in the same sequence, the figures for `C=CC[C@@H]1/C=C(\C)C[C@H](C)C[C@H](OC)[C@H]2O[C@@](O)(C(=O)C(=O)N3CCCC[C@H]3C(=O)O[C@H](/C(C)=C/[C@@H]3CC[C@@H](O)[C@H](OC)C3)[C@H](C)[C@@H](O)CC1=O)[C@H](C)C[C@@H]2OC` [TACROLIMUS ANHYDROUS] were greater than 10 µM, greater than 30 µM, greater than 30 µM and greater than 30 µM.
`CC(C)(C)NCC(O)c1cc(O)cc(O)c1` (stereo not given) [TERBUTALINE] showed an AC50 in assay [4] greater than 30 µM.
